In patent US11401271B2, “Fused heterocyclic compound, pyrazole-ring-containing fused heterocyclic compound, agricultural composition containing thereof, and method of using the composition” (SOUTH CHINA AGRICULTURAL UNIVERSITY, priority 2017, dated 2022):
Like-named read-outs stand apart in the source and are kept apart here.

How the values were obtained:
Experiment in all cases: whole plant or invertebrate
Type in all cases: in vivo
[1] = tested on: Aphis craccivora; settings: for mortality at 500 ppm: Aphis craccivora, 24 h, read-out: Aphis craccivora Mortality (%) 500 ppm; for Aphis craccivora Mortality (%) 500 ppm: wingless adults, impregnation method, 24 hours
Experimental: (3) Insecticidal Activity on Aphid Adults.
Aphid is a homoptera pest with a piercing-sucking mouthpart and is a common vegetable pest. Aphis craccivora were taken as test objects and tested by using an impregnation method.
Operation process: Samples were weighed accurately, and respectively added with 200 μL of dimethyl sulfoxide to prepare 10 g/L mother liquor which was diluted into a concentration of 500 ppm with an aqueous solution containing 0.05% of Tween-80 during the test. After the wingless Aphis craccivora adults stably sucked on bean sprouts, the wingless Aphis craccivora adults together with the bean sprouts were immersed into a liquid medicine with a concentration of 500 ppm, taken out after 5 seconds, air-dried naturally, transferred into a clean vessel, and fed at a constant temperature of 23° C. Each concentration was repeated 3 times, and an aqueous solution containing 0.05% of Tween-80 was used as a control group. After being treated for 24 hours, a number of dead Aphis craccivora was counted, and a mortality (%) was calculated according to a formula that mortality (%)=(number of live Aphis craccivora in the control group−number of treated live Aphis craccivora)/number of live Aphis craccivora in the control group*100%.

[2] = tested on: Spodoptera exigua; settings: for mortality at 500 ppm: Spodoptera exigua, 24 h, read-out: Spodoptera exigua Mortality (%) 500 ppm; for Spodoptera exigua Mortality (%) 500 ppm: 2nd-instar larvae, leaf immersion feeding, 24 hours
Experimental: (2) Insecticidal Activity on 2nd-Instar Larvae of Spodoptera exigua.
Spodoptera exigua is a lepidoptera pest with a chewing mouthpart and is a common vegetable pest. The 2nd-instar larvae of Spodoptera exigua were used as test objects and tested by using a leaf immersion feeding method.
(§1) Operation process: Samples were weighed accurately, and respectively added with 200 μL, of dimethyl sulfoxide to prepare 10 g/L mother liquor which was diluted into a concentration of 500 ppm with an aqueous solution containing 0.05% of Tween-80 during the test. A hole puncher with a diameter of 1.0 cm was used to make cleaned cabbage leaves into leaf discs. The leaf discs were immersed in a liquid medicine, taken out after 5 seconds, air-dried naturally, and transferred into a clean vessel. About 35 2nd -instar larvae of Spodoptera exigua were put into the vessel and fed at a constant temperature of 28° C. Each concentration was repeated 3 times, and an aqueous solution containing 0.05% of Tween-80 was used as a control group. After being treated for 24 hours, a number of dead Spodoptera exigua was counted, and a mortality (%) was calculated according to a formula that mortality (%)=(number of live larvae in the control group −number of treated live larvae)/number of live larvae in the control group * 100%.

[3] = tested on: Plutella xylostella; settings: for mortality at 500 ppm: Plutella xylostella, read-out: Plutella xylostella Mortality (%) 500 ppm; for Plutella xylostella Mortality (%) 500 ppm: 2nd-instar larvae, leaf immersion feeding
Experimental: (1) Insecticidal Activity on 2nd-Instar Larvae of Plutella xylostella.
Plutella xylostella (L.) is a lepidoptera pest with a chewing mouthpart and is a common vegetable pest. The 2nd-instar larvae of Plutella xylostella were used as test objects and tested by using a leaf immersion feeding method.
as §1, with “μL” for “μL,”, “2nd-instar” for “2nd -instar”, “Plutella xylostella” for “Spodoptera exigua”, “group−number” for “group −number”, “group*100%.” for “group * 100%.”

[4] = tested on: Solenopsis invicta; settings: water test tube poison-feeding; for mortality at 100 ppm: Solenopsis invicta
Experimental: (4) Insecticidal Activity on Solenopsis invicta.
As a hymenoptera pests and a social insect, Solenopsis invicta is one of the most destructive invasive organisms. Solenopsis invicta were used as test objects and tested by using a water test tube poison-feeding method.
Operation process: Samples were weighed accurately, and respectively added with 200 μL of dimethyl sulfoxide to prepare 10 g/L mother liquor which was diluted into a concentration of 100 ppm with a mixed aqueous solution containing 0.05% of Tween-80 and 5% of honey during the test. […] The raising test tube was placed in a raising box horizontally, and a small amount of ham sausages were added to the raising test tube as food to raise the Solenopsis invicta at a constant temperature of 25° C. After being treated for 24 hours and 72 hours, a number of live Solenopsis invicta and a number of dead Solenopsis invicta were counted, and a mortality (%) was calculated according to a formula that mortality (%)=(number of live Solenopsis invicta in the control group−number of treated live Solenopsis invicta)/number of live Solenopsis invicta in the control group*100%.

[5] = 24 h, read-out: Solenopsis invicta Mortality (%) 100 ppm 24 h, 100 ppm, 24 h
[6] = 72 h, read-out: Solenopsis invicta Mortality (%) 100 ppm 72 h, 100 ppm, 72 h

Structure (SMILES)	mortality at 500 ppm [1]	mortality at 500 ppm [2]	mortality at 500 ppm [3]	mortality at 100 ppm [4, 5]	mortality at 100 ppm [4, 6]	Aphis craccivora Mortality (%) 500 ppm [1]	Spodoptera exigua Mortality (%) 500 ppm [2]	Plutella xylostella Mortality (%) 500 ppm [3]	Solenopsis invicta Mortality (%) 100 ppm 24 h ([4]; 24 h)	Solenopsis invicta Mortality (%) 100 ppm 72 h ([4]; 72 h)
CC(=O)c1nn2c(c1[S+](C)[O-])NC(CC(=O)O)(C(=O)O)c1cc(C(F)(F)F)cc(Cl)c1-2 (stereo not drawn) [Compound C47]	80%	86%	77%	27%	87%	–	–	–	–	–
COC(=O)CC1(C(=O)OC)Nc2c([S+](C)[O-])c(C(C)=O)nn2-c2c(Cl)cc(C(F)(F)F)cc21 (stereo not drawn) [Compound C48]	79%	85%	76%	26%	86%	–	–	–	–	–
CC(=O)c1nn2c(c1[S+](C)[O-])NC(CC(N)=O)(C(N)=O)c1cc(C(F)(F)F)cc(Cl)c1-2 (stereo not drawn) [Compound C49]	90%	89%	87%	20%	81%	–	–	–	–	–
N#Cc1nn2c(c1-c1ccccc1C(F)(F)F)NC(CCl)(C(O)CO)c1cc(C(F)(F)F)cc(Cl)c1-2 (stereo not drawn) [Compound C53]	90%	89%	78%	28%	97%	–	–	–	–	–
Cc1cc(-c2c(C#N)nn3c2NC(C(O)CO)(C(F)(F)F)c2cc(C(F)(F)F)cc(Cl)c2-3)c(C)o1 (stereo not drawn) [Compound C54]	87%	78%	77%	17%	84%	–	–	–	–	–
N#Cc1nn2c(c1[S+]([O-])C(F)(F)F)NC(CCl)(C(O)CO)c1cc(C(F)(F)F)cc(Cl)c1-2 (stereo not drawn) [Compound C55]	91%	80%	88%	19%	83%	–	–	–	–	–
N#Cc1nn2c(c1[S+]([O-])C(F)(F)F)NC(C(O)CO)(C(F)(F)F)c1cc(C(F)(F)F)cc(Cl)c1-2 (stereo not drawn) [Compound C57]	80%	76%	78%	20%	89%	–	–	–	–	–
CC[S+]([O-])c1c(C#N)nn2c1NC(/C=C/C(=O)OC)(CC#N)c1cc(C(F)(F)F)cc(Cl)c1-2 (stereo not drawn) [Compound C59]	100%	90%	100%	29%	100%	–	–	–	–	–
COC(=O)/C=C/C1(CC#N)Nc2c([S+](C)[O-])c(C(C)=O)nn2-c2c(Cl)cc(C(F)(F)F)cc21 (stereo not drawn) [Compound C60]	100%	92%	90%	25%	92%	–	–	–	–	–
CCc1nn2c(c1Br)NC(/C=C\C(=O)OC)(/C=C/C(=O)OC)c1cc(C(F)(F)F)cc(Cl)c1-2 (stereo not drawn) [Compound C63]	96%	90%	98%	29%	98%	–	–	–	–	–
COC(=O)CC1(C(=O)OC)Nc2c([S+]([O-])C(F)(F)F)c(C#N)nn2-c2ncc(C(F)(F)F)cc21 (stereo not drawn) [a-1]	–	–	–	–	–	100%	100%	100%	20%	100%
COC(=O)C1(CC#N)Nc2c([S+]([O-])C(F)(F)F)c(C#N)nn2-c2ncc(C(F)(F)F)cc21 (stereo not drawn) [a-2]	–	–	–	–	–	100%	97%	97%	19%	98%
CCOC(=O)CC1(C(=O)OCC)Nc2c([S+]([O-])C(F)(F)F)c(C#N)nn2-c2ncc(C(F)(F)F)cc21 (stereo not drawn) [a-22]	–	–	–	–	–	100%	100%	100%	30%	100%
CC(=O)CC1(C(=O)C(F)(F)F)Nc2c([S+]([O-])C(F)(F)F)c(C#N)nn2-c2ncc(C(F)(F)F)cc21 (stereo not drawn) [a-26]	–	–	–	–	–	100%	100%	100%	34%	100%
N#Cc1nn2c(c1[S+]([O-])C(F)(F)F)NC(Cc1ccccc1)(C(=O)C(F)(F)F)c1cc(C(F)(F)F)cnc1-2 (stereo not drawn) [a-27]	–	–	–	–	–	100%	100%	100%	25%	100%
COC(=O)CC1(C(=O)C(F)(F)F)Nc2c([S+]([O-])C(F)(F)F)c(C#N)nn2-c2ncc(C(F)(F)F)cc21 (stereo not drawn) [a-28]	–	–	–	–	–	100%	95%	100%	23%	99%
N#Cc1nn2c(c1[S+]([O-])C(F)(F)F)NC(CBr)(C(=O)C(F)(F)F)c1cc(C(F)(F)F)cnc1-2 (stereo not drawn) [a-29]	–	–	–	–	–	100%	91%	100%	14%	96%
N#CCC1(C(=O)C(F)(F)F)Nc2c([S+]([O-])C(F)(F)F)c(C#N)nn2-c2ncc(C(F)(F)F)cc21 (stereo not drawn) [a-30]	–	–	–	–	–	100%	90%	96%	20%	97%
CC(=O)C1(CC(F)(F)F)Nc2c([S+]([O-])C(F)(F)F)c(C#N)nn2-c2ncc(C(F)(F)F)cc21 (stereo not drawn) [a-36]	–	–	–	–	–	100%	96%	100%	14%	91%
CC(=O)C1(CC(=O)C(F)(F)F)Nc2c([S+]([O-])C(F)(F)F)c(C#N)nn2-c2ncc(C(F)(F)F)cc21 (stereo not drawn) [a-37]	–	–	–	–	–	100%	96%	100%	15%	99%
N#Cc1nn2c(c1[S+]([O-])C(F)(F)F)NC(Cl)(Cl)c1cc(C(F)(F)F)cnc1-2 (stereo not drawn) [a-44, 5,5-dichloro-7-trifluoromethyl-3-trifluoromethylsulfinyl-4,5-dihydropyrazole[1,5-α]quinazoline[3,2-e]pyridine-2-cyano]	–	–	–	–	–	100%	95%	100%	15%	95%
